Patent US10344035B2, “Salt of quinolone compound, polymorphs thereof, preparation method therefor, composition, and applications” (SHANGHAI PHARMACEUTICALS HOLDING CO., LTD., priority 2015, dated 2019)
Where a name gives a salt, the structure may show the parent alone.

Assay: Pharmacokinetic study in rats
Conditions: for concentration at 60 min / concentration at 90 min / concentration at 120 min / concentration at 240 min / concentration at 360 min / concentration at 480 min / concentration at 720 min / concentration at 1440 min / concentration at 5 min / concentration at 15 min / concentration at 30 min: oral, 20 μmol/kg, intragastric 20 μmol/kg
Experimental: All stock solutions of the test compound were sonicated and heated to become clarified and formulated to a 25 mM solution with DMSO.
All samples were dosed at 20 μmol/kg.
The blood sample was centrifuged at 8000 rpm for 5 min, the plasma was collected in a centrifuge tube and stored at −20° C. for use.
Treatment of the plasma sample: the proteins in 50 μL plasma sample were precipitated with 200 μL acetonitrile containing internal standard (Propranolol (PRO), 2.5 ng/mL). Vortexed for 10 min, centrifuged at 6000 g for 10 min, the supernatant was taken and 5-fold diluted with the mobile phase, and the supernatant was injected into a 96-well plate for analysis.
flow rate: 0.3 mL/min; injection volume: 2 μL; column temperature 45° C. The gradient elution procedure was: […]
The ion source was an electrospray ionization source (Turbo Ionspray, ESI); the electrospray voltage was 5500V; the temperature was 500° C.; pressure of ion source gas 1 (N2) was 50 psi; pressure of ion source gas 2 (N2) was 50 psi; pressure of curtain gas (N2) 20 psi; pressure of collision gas (CAD) was Medium; scan time was 100 ms; positive ion mode detection; scan mode was multiple reaction monitoring (MRM), ion reaction and collision energy (CE) for quantitative analysis, declustering potential (DP) are shown in the following table: […]

[1] = SD (Sprague-Dawley), rat, plasma, Plasma concentration Mean, SD rats, mean of 3 rats
[2] = SD (Sprague-Dawley), rat, plasma, Plasma concentration Rat1, SD rats, Rat1
[3] = SD (Sprague-Dawley), rat, plasma, Plasma concentration Rat 2, SD rats, Rat 2
[4] = SD (Sprague-Dawley), rat, plasma, Plasma concentration Rat 3, SD rats, Rat 3
[5] = SD rats, intragastric, 20 umol/kg
[6] = SD, rat, plasma, Plasma concentration Mean, SD rats, mean of 3 rats
[7] = SD, rat, plasma, Plasma concentration Rat1, SD rats, Rat1
[8] = SD, rat, plasma, Plasma concentration Rat 2, SD rats, Rat 2
[9] = SD, rat, plasma, Plasma concentration Rat 3, SD rats, Rat 3

Question: For `CNC(=O)c1ccc(-c2cnc3ncc(Cc4ccc5ncccc5c4)n3n2)cc1F` [INCB28060 hydrochloride], which concentration at 60 min [1] is on record?
Answer: The concentration at 60 min was 910 nM.

Question: What about the concentration at 90 min [1] of the same compound?
Answer: Its concentration at 90 min is 730 nM.

Question: What about the concentration at 120 min [1] of the same compound?
Answer: The concentration at 120 min was 600 nM.

Question: What about the concentration at 240 min [1] of the same compound?
Answer: The concentration at 240 min was 430 nM.

Question: What about the concentration at 360 min [1] of the same compound?
Answer: The concentration at 360 min was 180 nM.

Question: What about the concentration at 480 min [1] of the same compound?
Answer: The concentration at 480 min was 80 nM.

Question: What about the concentration at 720 min [1] of the same compound?
Answer: The concentration at 720 min was 30 nM.

Question: And the concentration at 1440 min [1]?
Answer: Its concentration at 1440 min is 10 nM.

Question: What about the concentration at 5 min [2] of the same compound?
Answer: The concentration at 5 min was 15.3 nM.

Question: What about the concentration at 60 min [2] of the same compound?
Answer: Its concentration at 60 min is 616 nM.

Question: What about the concentration at 90 min [2] of the same compound?
Answer: Its concentration at 90 min is 394 nM.

Question: And the concentration at 120 min [2]?
Answer: The concentration at 120 min was 305 nM.

Question: And the concentration at 240 min [2]?
Answer: The concentration at 240 min was 465 nM.

Question: What about the concentration at 360 min [2] of the same compound?
Answer: Its concentration at 360 min is 193 nM.

Question: And the concentration at 480 min [2]?
Answer: Its concentration at 480 min is 88.5 nM.

Question: And the concentration at 720 min [2]?
Answer: Its concentration at 720 min is 62.6 nM.

Question: And the concentration at 1440 min [2]?
Answer: The concentration at 1440 min was 8.08 nM.

Question: What about the concentration at 5 min [3] of the same compound?
Answer: Its concentration at 5 min is 42.5 nM.

Question: And the concentration at 60 min [3]?
Answer: The concentration at 60 min was 1210 nM.

Question: And the concentration at 90 min [3]?
Answer: Its concentration at 90 min is 961 nM.

Question: And the concentration at 120 min [3]?
Answer: Its concentration at 120 min is 725 nM.

Question: And the concentration at 240 min [3]?
Answer: The concentration at 240 min was 333 nM.

Question: What about the concentration at 360 min [3] of the same compound?
Answer: The concentration at 360 min was 148 nM.

Question: And the concentration at 480 min [3]?
Answer: Its concentration at 480 min is 42 nM.

Question: And the concentration at 720 min [3]?
Answer: Its concentration at 720 min is 13.1 nM.

Question: And the concentration at 1440 min [3]?
Answer: The concentration at 1440 min was 6.99 nM.

Question: What about the concentration at 5 min [4] of the same compound?
Answer: Its concentration at 5 min is 22.2 nM.

Question: What about the concentration at 60 min [4] of the same compound?
Answer: The concentration at 60 min was 897 nM.

Question: And the concentration at 90 min [4]?
Answer: The concentration at 90 min was 835 nM.

Question: And the concentration at 120 min [4]?
Answer: Its concentration at 120 min is 758 nM.

Question: And the concentration at 240 min [4]?
Answer: Its concentration at 240 min is 495 nM.

Question: And the concentration at 360 min [4]?
Answer: Its concentration at 360 min is 211 nM.

Question: And the concentration at 480 min [4]?
Answer: The concentration at 480 min was 107 nM.

Question: And the concentration at 720 min [4]?
Answer: Its concentration at 720 min is 25.7 nM.

Question: What about the concentration at 1440 min [4] of the same compound?
Answer: Its concentration at 1440 min is 15.6 nM.

Question: What about the Clearance [5] of the same compound?
Answer: The Clearance was 89 mL/min/kg.

Question: And the Vss [5]?
Answer: Its Vss is 24.325 L/kg.

Question: What about the Vz [5] of the same compound?
Answer: Its Vz is 35.978 L/kg.

Question: What about the thalf [5] of the same compound?
Answer: The thalf was 283.79 min.

Question: And the concentration at 5 min [6]?
Answer: The concentration at 5 min was 30 nM.

Question: And the concentration at 15 min [6]?
Answer: The concentration at 15 min was 530 nM.

Question: And the concentration at 30 min [6]?
Answer: Its concentration at 30 min is 1030 nM.

Question: What about the concentration at 15 min [7] of the same compound?
Answer: The concentration at 15 min was 399 nM.

Question: And the concentration at 30 min [7]?
Answer: The concentration at 30 min was 784 nM.

Question: What about the concentration at 15 min [8] of the same compound?
Answer: The concentration at 15 min was 732 nM.

Question: And the concentration at 30 min [8]?
Answer: Its concentration at 30 min is 1320 nM.

Question: What about the concentration at 15 min [9] of the same compound?
Answer: The concentration at 15 min was 448 nM.

Question: What about the concentration at 30 min [9] of the same compound?
Answer: Its concentration at 30 min is 990 nM.

Question: And the AUC(0-t) (SD, rat, plasma, po, 20 umol/kg, AUC(0-t), SD rats, intragastric)?
Answer: Its AUC(0-t) is 3.73 µM·h.

Question: What about the AUC (SD, rat, plasma, po, 20 umol/kg, AUCextra, SD rats, intragastric) of the same compound?
Answer: The AUC was 0.0715 µM·h.

Question: What about the AUC (SD, rat, plasma, po, 20 umol/kg, AUCtot, SD rats, intragastric) of the same compound?
Answer: The AUC was 3.8 µM·h.

Question: And the Cmax (SD, rat, plasma, po, 20 umol/kg, Cmax, SD rats, intragastric)?
Answer: The Cmax was 1030 nM.

Question: What about the MRT (SD, rat, plasma, po, 20 umol/kg, MRT, SD rats, intragastric) of the same compound?
Answer: The MRT was 4.53 h.

Question: What about the Tmax (SD, rat, plasma, po, 20 umol/kg, Tmax, SD rats, intragastric) of the same compound?
Answer: The Tmax was 0.5 h.

Question: What about the “exposure in rats (comparison in words)” value (rats, 20 μmol/kg intragastric) of the same compound?
Answer: Its value is “not as good as that of crystal form A of SPH1772 ditartrate and crystal form A of SPH1772”.
